Experiments:
Format in all cases: cell-based, human
Hep3B = test: 3H thymidine proliferation assay, Hep3B; settings: 3H thymidine method, 72 h incubation; read-out: EC50, Hep3B
Summary of the method: (§1)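 Tumour cells were plated at 1.0×10^4 per well and, after 3 h, treated with threefold serial dilutions of compound or conjugate. Total incubation was 72 h, with a 1.0 μCi ^3H-thymidine pulse over the last 24 h. Counts gave the 50% inhibition concentration (EC50).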

SKOV3 = test: 3H thymidine proliferation assay, SKOV3; settings: 3H thymidine method, 72 h incubation; read-out: EC50, SKOV3
Summary of the method: as §1

PC3 = test: ATP luminescence proliferation assay, PC3; settings: ATP luminescence, PC3, 48 h incubation; read-out: EC50 PC3 (48 h)
Method: (§2) This example generally describes the procedures used to assay the antiproliferative activity of compounds of this invention or their conjugates. Human tumor cell lines were obtained from the American Type Culture Collection (ATCC), P.O. Box 1549, Manassas, Va. 20108, USA, and cultured according to instruction from the ATCC. Cells were seeded at 1.0×10^3 or 1.0×10^4 cells/well in 96-well plates for 3 h for ATP assays or ^3H thymidine assays, respectively. 1:3 serial dilutions of free (unconjugated) compounds or their conjugates were added to the wells. Plates were allowed to incubate for 24 to 72 h. The ^3H thymidine plates were pulsed with 1.0 μCi of ^3H-thymidine per well for the last 24 hours of the total incubation period, harvested, and read on a Top Count Scintillation Counter (Packard Instruments, Meriden, Conn.). ATP levels in the ATP plates were measured using the […]-GLO® Luminescent Cell Viability kit following the manufacturer's manual and read on a GLOMAX® 20/20 luminometer (both from Promega, Madison, Wis., USA). The EC50 values—the concentration at which an agent inhibits or reduces cell proliferation by 50% —were determined using PRISM™ software, version 4.0 (GraphPad Software, La Jolla, Calif., USA).
(§3) Using the ^3H thymidine or the ATP luminescence assay, or both, the activities of compounds of this invention were assayed against the following cancer cell lines: HCT-15 (colorectal cancer, multi-drug resistant (MDR)); Hep3B (liver cancer); LNCaP (prostate cancer, androgen receptor positive (AR^+)); MDA-MB-231 (breast cancer, estrogen receptor, progesterone receptor, and Her2 negative (triple negative)); A2058 (melanoma); U-87 MG (glioblastoma); NCI-H460 (NSCLC); A549 (NSCLC); HPAC (pancreatic cancer, primary); PC3 (prostate cancer, AR); BT474 (breast cancer, Her2 highly positive (Her2hi)); SKOV3 (ovarian cancer, Her2hi); 786-O (renal cancer); UO-31 (renal cancer, MDR); NCI-H740 (SCLC); DMS53 (SCLC); SK-BR3 (breast cancer, Her2hi); ZR-75 (breast cancer, estrogen receptor positive); OVCAR3 (ovarian cancer); HL-60 (APL); OVCAR8/Adr (ovarian cancer, MDR); CEM-Cl (ALL); Nomo-1 (AML); RPMI-8226 (MM)); Raji (lymphoma); SW-480 (colorectal cancer, metastatic); SW-620 (colorectal cancer); and H226 (lung cancer). (Not all compounds were assayed against all cell lines.)
(§4) Table 3 provides the data for the ATP luminescence proliferation assays, with an incubation period of 48, 72, or 96 h, as noted.

RPMI-8226 = test: ATP luminescence proliferation assay, RPMI-8226; settings: ATP luminescence, RPMI-8226, 72 h incubation; read-out: EC50 RPMI-8226 (72 h)
Method: as §2, §3, §4

SK-BR3 = test: ATP luminescence proliferation assay, SK-BR3; settings: ATP luminescence, SK-BR3, 48 h incubation; read-out: EC50 SK-BR3 (48 h)
Method: as §2, §3, §4

NCI-H460 = test: 3H thymidine proliferation assay, NCI-H460; settings: 3H thymidine method, 72 h incubation; read-out: EC50, NCI-H460
Summary of the method: as §1

ZR-75 = test: 3H thymidine proliferation assay, ZR-75; settings: 3H thymidine method, 72 h incubation; read-out: EC50, ZR-75
Summary of the method: as §1

MDA-MB-231 = test: 3H thymidine proliferation assay, MDA-MB-231; settings: 3H thymidine method, 72 h incubation; read-out: EC50, MDA-MB-231
Summary of the method: as §1

UO-31 = test: ATP luminescence proliferation assay, UO-31; settings: ATP luminescence, UO-31, 48 h incubation; read-out: EC50 UO-31 (48 h)
Method: as §2, §3, §4

OVCAR3 = test: ATP luminescence proliferation assay, OVCAR3; settings: ATP luminescence, OVCAR3, 48 h incubation; read-out: EC50 OVCAR3 (48 h)
Summary of the method: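 ATP luminescence read-out after 48, 72 or 96 h exposure to 1:3 serially diluted unconjugated compounds or conjugates; 1.0×10^3 cells/well plated 3 h before dosing. EC50 = 50% reduction of proliferation.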

U-87 MG [1] = test: ATP luminescence proliferation assay, U-87 MG; settings: ATP luminescence, 72 h incubation, read-out: EC50 U-87 MG (72 h)
Method: as §2, §3, §4

A549 = test: 3H thymidine proliferation assay, A549; settings: 3H thymidine method, 72 h incubation; read-out: EC50, A549
Summary of the method: as §1

CEM-C1 = test: 3H thymidine proliferation assay, CEM-C1; settings: 3H thymidine method, 72 h incubation; read-out: EC50, CEM-C1
Summary of the method: as §1

SW-620 = test: ATP luminescence proliferation assay, SW-620; settings: ATP luminescence, SW-620, 96 h incubation; read-out: EC50 SW-620 (96 h)
Method: as §2, §3, §4

Raji = test: ATP luminescence proliferation assay, Raji; settings: ATP luminescence, 72 h incubation, read-out: EC50 Raji (72 h)
Method: as §2, §3, §4

U-87 MG [2] = test: 3H thymidine proliferation assay, U-87 MG; settings: 3H thymidine method, 72 h incubation; read-out: EC50, U-87 MG
Summary of the method: as §1

786-O = test: ATP luminescence proliferation assay, 786-O; settings: ATP luminescence, 786-O, 72 h incubation; read-out: EC50 786-O (72 h)
Summary of the method: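 Read-out: luminescent ATP cell viability after 48, 72 or 96 h incubation, as noted, with 1:3 serial dilutions of unconjugated compounds or their conjugates. Plating was 1.0×10^3 cells/well, 3 h before dosing. EC50 = concentration giving 50% inhibition of proliferation.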

HCT-15 = test: 3H thymidine proliferation assay, HCT-15; settings: 3H thymidine method, 72 h incubation; read-out: EC50, HCT-15
Summary of the method: as §1

SMILES	EC50 (Hep3B) [nM]	EC50 (SKOV3) [nM]	EC50 (PC3) [nM]	EC50 (RPMI-8226) [nM]	EC50 (SK-BR3) [nM]	EC50 (NCI-H460) [nM]	EC50 (ZR-75) [nM]	EC50 (MDA-MB-231) [nM]	EC50 (UO-31) [nM]	EC50 (OVCAR3) [nM]	EC50 (U-87 MG [1]) [nM]	EC50 (A549) [nM]	EC50 (CEM-C1) [nM]	EC50 (SW-620) [nM]	EC50 (Raji) [nM]	EC50 (U-87 MG [2]) [nM]	EC50 (786-O) [nM]	EC50 (HCT-15) [nM]
CC[C@H](C)[C@H](NC(=O)[C@H]1CCCCN1C)C(=O)N(COC(=O)CC(C)C)[C@H](C[C@@H](O)c1nc(C(=O)N[C@@H](Cc2ccccc2)C(=O)OC)cs1)C(C)C [Compound 28]	24	9.9	5.8	10	7.8	> 100	4.3	> 100	5.8	14	18	> 100	10	21	15	> 100	29	223
CC[C@H](C)[C@H](NC(=O)[C@H]1CCCCN1C)C(=O)N(COC(=O)CC(C)C)[C@H](C[C@@H](OC(C)=O)c1nc(C(=O)N[C@@H](Cc2ccccc2)C(=O)OC)cs1)C(C)C [Compound 29]	0.041	0.029	3.4	1	3.6	0.21	3.8	0.13	2.7	> 100	4.9	0.44	0.019	1.5	2.1	0.064	2.8	0.18
